Laboratory results as given in patent US8603539B2, “Compositions for drug delivery” (Dr. Reddy's Laboratories Limited, priority 2005, dated 2013).

Tested on: New Zealand white rabbits
Test: Comparative dermal irritation study (PDII)
Details: rabbit skin, patch 24 hours; erythema and edema scores at 25, 48 and 72 hours
Method: Six male New Zealand white rabbits of age between 10 to 15 months and weight in the range of 2 to 3 Kg were used in the study. […] The hair on the backs of the rabbits was clipped and approximately 0.5 g of Test or Reference or Control 2 was placed on a gauze patch and was applied to the skin site. Separate gauze patches containing Test, Reference and Control 2 were applied on the back. The patches were moistened with 0.5 ml physiological saline after application. 0.5 ml of Control 1 was injected into a fourth gauze patch after applying the patch on the skin. The patches were removed after 24 hours.
The test and control items were categorized based on the Primary Dermal Irritation Index (PDII). The PDII was determined as the ratio of total irritation score (TIS) and total number of observations. The TIS was calculated by adding the subtotal values for erythema and edema. The subtotal values for erythema and edema were separately calculated by adding the irritation scores at 25, 48 and 72 hours post-application. The following scoring criteria were used as described in the literature (S. C. Gad et al., Acute Toxicology Testing: Perspectives and Horizons, The Telford Press, Inc., Caldwell, N.J., 1988):

CCCCCCCCCCCCOS(=O)(=O)[O-].[Na+] [Control 1, sodium lauryl sulphate]
PDII (Primary Dermal Irritation Index): 0.44
